Among the data in US10266489B2, “Pyrrolic amide compound and preparation method and application thereof” (HitGen LTD, priority 2014, dated 2019) are IC50 values, retold here.

Assay [1] has as its target T1, histone deacetylase 6 (HDAC6) (Homo sapiens, UniProt Q9UBN7).
T1 construct: purchased BPS Bioscience 50076
T1 sequence (Q9UBN7 1-1215): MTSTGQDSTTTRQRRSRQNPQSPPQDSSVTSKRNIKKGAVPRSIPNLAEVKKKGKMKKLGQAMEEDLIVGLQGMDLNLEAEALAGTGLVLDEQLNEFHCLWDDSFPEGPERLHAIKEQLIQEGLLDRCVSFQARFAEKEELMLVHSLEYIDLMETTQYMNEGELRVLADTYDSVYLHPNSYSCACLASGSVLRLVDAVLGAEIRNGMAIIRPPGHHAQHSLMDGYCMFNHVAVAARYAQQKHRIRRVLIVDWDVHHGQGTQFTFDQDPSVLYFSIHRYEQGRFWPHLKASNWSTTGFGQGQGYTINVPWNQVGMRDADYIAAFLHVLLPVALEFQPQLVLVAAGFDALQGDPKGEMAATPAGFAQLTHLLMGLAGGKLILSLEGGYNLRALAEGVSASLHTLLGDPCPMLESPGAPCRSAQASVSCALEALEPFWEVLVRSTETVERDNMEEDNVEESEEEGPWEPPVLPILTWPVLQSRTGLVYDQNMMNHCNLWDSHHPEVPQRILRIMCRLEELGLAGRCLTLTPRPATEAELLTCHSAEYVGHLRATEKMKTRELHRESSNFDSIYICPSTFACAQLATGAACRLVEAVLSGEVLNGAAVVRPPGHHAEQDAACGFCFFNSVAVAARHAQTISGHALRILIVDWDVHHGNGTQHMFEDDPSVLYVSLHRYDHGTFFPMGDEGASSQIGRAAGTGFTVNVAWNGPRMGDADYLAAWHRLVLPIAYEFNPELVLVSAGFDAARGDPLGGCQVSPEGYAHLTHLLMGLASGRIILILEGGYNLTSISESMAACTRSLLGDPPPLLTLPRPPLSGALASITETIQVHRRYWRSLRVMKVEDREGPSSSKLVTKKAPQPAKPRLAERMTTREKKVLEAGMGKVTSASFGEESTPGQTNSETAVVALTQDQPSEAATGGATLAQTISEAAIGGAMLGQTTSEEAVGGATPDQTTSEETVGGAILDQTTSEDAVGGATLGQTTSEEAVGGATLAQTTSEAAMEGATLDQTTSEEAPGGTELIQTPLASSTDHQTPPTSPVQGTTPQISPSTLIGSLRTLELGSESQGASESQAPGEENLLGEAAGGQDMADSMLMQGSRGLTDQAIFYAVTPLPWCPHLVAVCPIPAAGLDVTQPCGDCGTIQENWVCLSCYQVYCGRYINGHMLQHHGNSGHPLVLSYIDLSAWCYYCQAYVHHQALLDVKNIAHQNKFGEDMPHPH
As to the kind of experiment: Detection of enzyme viability of histone deacetylase 6 (fluorogenic substrate deacetylation). The format is biochemical. The settings on record: 0.35 ng/μL HDAC 6, 20 μM substrate, 37° C. The source says:
HDAC inhibitory viabilities of the compounds in the present invention are detected in detection of substrate deacetylation.
A: Detection of enzyme viability of histone deacetylase 6 (#50076, BPS Bioscience):
Acetyl of HDAC 6 on a substrate is removed, so that the substrate is activated and can be affected by a subsequently added developing solution, and fluorophore is released. The size of a fluorescence signal reflects the viability of the HDAC 6. An IC50 detection method of the enzyme is disclosed in Chuping Xu, Elisabetta Soragni improved Histone Deacetylase Inhibitors as Therapeutics for the Neurdegenerative DiseaseEriedreich's Ataxia: A New Synthetic Route. A total reaction system (100 μL/well) contains 0.35 ng/μL of HDAC 6, 20 μM of substrate and compounds of different concentrations. The fluorescence signal is measured within 30 minutes after incubation at a temperature of 37° C., inhibitory effects of the compounds are determined from the obtained data and mapped with the compound concentrations to obtain a concentration response curve, and the IC50 value is fitted according to a four-parameter model.
The compounds 1-19 prepared in the embodiments are subjected to detection of enzyme viability of histone deacetylase 6 (i.e., HDAC6) according to the method above. Test results are shown in Table 2, wherein the measured IC50 values of the compounds are classified as specified, as shown in Table 2: […]

A further assay concerns HepG2 cells. As to the kind of experiment: Determination of cell growth inhibition, CCK-8, HepG2. The format is cell-based. The settings on record: Homo sapiens, HepG2 hepatoma cells, 72 hours, highest measured IC50 of single or multiple operations. The source says:
(§1) Test example 2 Cell determination-determination of cell growth inhibition Materials and reagents HepG2 cell strains, Hep3B cell strains, Huh7 cell strains and Li7 cell strains are purchased from Shanghai Institutes for Biological Sciences of Chinese Academy of Sciences; DMEM high glucose media and MEM media are purchased from Hyclone; fetal calf serum is purchased from Gibco Company; trypsin is purchased from Invitrogen Shanghai; CCK-8 kits are purchased from Beyotime Institute of Biotechnology; and other consumables such as cell-culture dishes and the like are purchased from Corning China. […]
(§2) comprising the steps: digesting HepG2 cells, Hep3B Huh7 cells and Li7 cells in logarithmic phases by using the trypsin; after counting the cells by taking uniform cell suspension, adjusting cell density to 1500 cells/pore by using a culture medium containing 10% of serum, and re-inoculating into a 96-pore cell culture plate, wherein the culture volume is 200 μL; incubating in a 5% CO2 incubator at a temperature of 37° C.; and culturing for 24 hours for experiments. […]
(§3) comprising the steps: taking the cells cultured for 24 hours from the incubator, sucking culture solution in the pore plate, adding 200 μL of compound solution prepared by using a culture medium containing 10% of the fetal calf serum into each pore, enabling five pores of each concentration to be parallel, setting DMSO at negative control, and incubating in the 5% CO2 incubator at a temperature of 37° C. for 72 hours for performing CCK-8 detection. […]
(§4) comprising the steps: taking a serum-free medium and a CCK-8 solution, and preparing a CCK-8 working solution according to a ratio of 10:1 (the process needs to be protected from light); taking the cells cultured for 72 hours from the incubator, sucking culture solution in the pore plate, adding 120 μL of the CCK-8 working solution into each pore, adding 120 μL of the CCK-8 working solution into a cell-free pore plate to serve as blank control, and incubating in the 5% CO2 incubator at a temperature of 37° C. for one hour (the process needs to be protected from light ); and […]
(§5) taking the pore plate from the incubator, sucking 100 μL of solution from each pore into a new 96-pore plate, and reading absorbancy at 450 nm (the process needs to he protected from light).
(§6) Tx: absorbancy measured in CCK-8 within 72 hours after compound effect
(§7) C: absorbancy measured m CCK-8 within 72 hours after culturing in negative control pores B: absorbancy measured CCK-8 in blank control pores
(§8) The compounds 1-19 prepared in the embodiments are operated in the above determination, and test results are shown in Table 3, wherein the highest measured IC50 values of the various compounds during single or multiple operations are classified as specified, as shown in Table 3: […]

The test system of the next assay is Huh7 cells. In words: Determination of cell growth inhibition, CCK-8, Huh-7. In kind it is cell-based. The settings on record: Homo sapiens, Huh-7 hepatoma cells, 72 hours, highest measured IC50 of single or multiple operations.
Description: as §1, §2, §3, §4, §5, §6, §7, §8

A further assay has as its system Li7 cells. In words: Determination of cell growth inhibition, CCK-8, Li-7. The format is cell-based. Conditions: Li-7 hepatoma cells, 72 hours, highest measured IC50 of single or multiple operations.
Description: as §1, §2, §3, §4, §5, §6, §7, §8

The next assay has as its system Hep3B cells. In words: Determination of cell growth inhibition, CCK-8, Hep3B. The settings on record: Homo sapiens, Hep3B hepatoma cells, 72 hours, highest measured IC50 of single or multiple operations. The format is cell-based.
Description: as §1, §2, §3, §4, §5, §6, §7, §8

Structures are written as SMILES.

Turning to `N#Cc1ccc(S(=O)(=O)N2CC=C(C(=O)NO)C2)cc1` [Compound 1, N-hydroxy-1-((4-benzene-cyano)sulfonyl) 2,5-dihydro-1H-pyrrole-3-formamide], the IC50 (as a rule, the midpoint of a concentration-inhibition curve) was 0.1 to 0.3 µM in assay [1]; more than 10 µM in the assay with HepG2 cells; more than 10 µM in the assay with Huh7 cells; more than 10 µM in the assay on Li7 cells; more than 10 µM in the assay with Hep3B cells.

As to `O=C(NO)C1=CCN(S(=O)(=O)c2ccc(C(=O)O)cc2)C1` [Compound 7], the IC50 in assay [1] is less than 0.1 µM; in the assay with HepG2 cells it was more than 10 µM; with Huh7 cells, more than 10 µM; in the assay on Li7 cells it was more than 10 µM; in the assay on Hep3B cells it was more than 10 µM.

Turning to `CNC(=O)c1ccc(S(=O)(=O)N2CC=C(C(=O)NO)C2)cc1` [Compound 9, N-hydroxy-1-((4-(methylaminecarbonyl)phenyl)sulfonyl) 2,5-dihydro-1H-pyrrole-3-formamide], the IC50 in assay [1] is less than 0.1 µM; in the assay with HepG2 cells, more than 10 µM; in the assay with Huh7 cells, more than 10 µM; with Li7 cells, more than 10 µM; with Hep3B cells, more than 10 µM.

In the case of `CC(=O)Nc1ccc(S(=O)(=O)N2CC=C(C(=O)NO)C2)cc1` [Compound 10, N-hydroxy-1-((4-acetamido-phenyl)sulfonyl) 2,5-dihydro-1H-pyrrole-3-formamide], the IC50 in assay [1] was less than 0.1 µM; in the assay with HepG2 cells, more than 10 µM; in the assay on Huh7 cells it was more than 10 µM; in the assay with Li7 cells it was more than 10 µM; in the assay with Hep3B cells, more than 10 µM.

As for `O=C(NO)C1=CCN(S(=O)(=O)c2ccc(F)cc2)C1` [Compound 11, N-hydroxy-1-((4-fluoro-phenyl)sulfonyl) 2,5-dihydro-1H-pyrrole-3-formamide], the IC50 in assay [1] is less than 0.1 µM; in the assay with HepG2 cells it was more than 10 µM; in the assay with Huh7 cells, more than 10 µM; in the assay with Li7 cells, more than 10 µM; in the assay with Hep3B cells, more than 10 µM.

Take `O=C(NO)C1=CCN(S(=O)(=O)c2cccc(F)c2)C1` [Compound 12, N-hydroxy-1-((3-fluoro-phenyl)sulfonyl) 2,5-dihydro-1H-pyrrole-3-formamide]: the IC50 in assay [1] is less than 0.1 µM; in the assay on HepG2 cells, less than 10 µM; with Huh7 cells, more than 10 µM; in the assay on Li7 cells, more than 10 µM; with Hep3B cells it was more than 10 µM.

As to `COc1ccc(S(=O)(=O)N2CC=C(C(=O)NO)C2)cc1` [Compound 13, N-hydroxy-1-((4-methoxy-phenyl)sulfonyl) 2,5-dihydro-1H-pyrrole-3-formamide], the IC50 in assay [1] was less than 0.1 µM; in the assay on HepG2 cells it was less than 10 µM; in the assay on Huh7 cells, more than 10 µM; with Li7 cells, less than 10 µM; in the assay with Hep3B cells, less than 10 µM.

For `COc1cccc(S(=O)(=O)N2CC=C(C(=O)NO)C2)c1` [Compound 14, N-hydroxy-1-((3-methoxy-phenyl)sulfonyl) 2,5-dihydro-1H-pyrrole-3-formamide], the IC50 in assay [1] was less than 0.1 µM; in the assay with HepG2 cells, less than 10 µM; with Huh7 cells it was more than 10 µM; with Li7 cells, less than 10 µM; in the assay on Hep3B cells, less than 10 µM.

With `Cc1ccc(S(=O)(=O)N2CC=C(C(=O)NO)C2)cc1` [Compound 15, N-hydroxy-1-((4-methylphenyl)sulfonyl)2,5-dihydro-1H-pyrrole-3-formamide], the IC50 is less than 0.1 µM in assay [1]; less than 10 µM with HepG2 cells; more than 10 µM with Huh7 cells; less than 10 µM in the assay on Li7 cells; less than 10 µM in the assay on Hep3B cells.

Regarding `Cc1cccc(S(=O)(=O)N2CC=C(C(=O)NO)C2)c1` [Compound 16, N-hydroxy-1-((3-methylphenyl)sulfonyl)2,5-dihydro-1H-pyrrole-3-formamide], the IC50 in assay [1] is less than 0.1 µM; with HepG2 cells, less than 10 µM; in the assay on Huh7 cells, more than 10 µM; with Li7 cells, more than 10 µM; in the assay with Hep3B cells, more than 10 µM.

In the case of `COc1ccc(S(=O)(=O)N2CC=C(C(=O)NO)C2)cc1OC` [Compound 17, N-hydroxy-1-((3,4-dimethoxyphenyl)sulfonyl) 2,5-dihydro-1H-pyrrole-3-formamide], the IC50 in assay [1] is 0.1 to 0.3 µM; in the assay with HepG2 cells, more than 10 µM; in the assay on Huh7 cells, more than 10 µM; in the assay on Li7 cells it was more than 10 µM; in the assay with Hep3B cells, more than 10 µM.

For the compound `O=C(NO)C1=CCN(S(=O)(=O)c2ccc(C3=CCNCC3)cc2)C1` [Compound 18, N-hydroxy-1-((4-(1,2,3,6-tetrahydro-pyridine-4-yl)phenyl)sulfonyl) 2,5-dihydro-1H-pyrrole-3-formamide], the IC50 in assay [1] is 0.1 to 0.3 µM; in the assay on HepG2 cells it was more than 10 µM; in the assay with Huh7 cells, more than 10 µM; in the assay with Li7 cells, more than 10 µM; in the assay on Hep3B cells, more than 10 µM.

As for `Nc1ccccc1NC(=O)C1=CCN(S(=O)(=O)c2ccccc2)C1` [Compound 19, N-(2-aminophenyl)-1-(benzenesulfonyl)-2,5-dihydro-1H-pyrrole-3-formamide], the IC50 was more than 0.5 µM in assay [1]; more than 10 µM in the assay on HepG2 cells; more than 10 µM in the assay on Huh7 cells; more than 10 µM with Li7 cells; more than 10 µM with Hep3B cells.
